Results from patent US5496703A, “Indirect immunoassay for dioxinlike compounds” (priority 1993, dated 1996).
Entries after “also recorded” stand apart in the source; their conditions may differ.

Assays:
[1] = test system: protein tyrosylphosphorylation of hepatic S-9 proteins; test: Immunoblot / densitometry of hepatic S-9 phosphotyrosyl proteins, mice dosed i.p.; type: in vivo, C57BL/6 mice
Experimental: Female, C57BL/6 mice (or any cytochrome P-450IA1 inducible strain) were obtained from Harton Sprague Dawley (Indianapolis, Ind.). Experiments were performed using four to six week old, female mice weighing approximately 16 to 20 g. Mice were fed Prolab RMH 1000 rat, mouse and hamster food (Agway, Cortland, N.Y.) and received tap water ad libitum. All mice were housed three to five per cage and maintained on a photoperiod of 12 hours. Mice were killed 24 hours following an intraperitoneal injection of either corn oil alone or TCDD (Analabs) at 0.25, 0.5, 1, 2, 4, 10, 50 μg/kg, the volume of the injections ranged from 0.1 to 0.2 ml per mouse. Hepatic S-9 fractions were prepared by homogenizing the liver in 3 times the volume of 0.15M KCl. Following a 9000×g centrifugation for 20 minutes, the supernatant (S-9) fraction was carefully removed and quickly frozen for storage at -80° C.
(§1) The separation of S-9 proteins by means of SDS PAGE was performed by mixing the S-9 1:1 with a double strength sodium dodecyl sulfate sample buffer and heating the solution at 100° C. for 3 minutes prior to one-dimensional SDS polyacrylamide gel electrophoresis with 10% polyacrylamide. After electrophoresis, a Milliblot SDS electroblot apparatus (Millipore, Bedford, Mass.) was used to transfer the proteins from the polyacrylamide gels to an Immobilon™ membrane filter (Millipore). Complete transfers were accomplished in 25-30 minutes at 500 mA and were assessed by tracking pre-stained molecular weight standards onto the membrane filter. Membrane filters were blocked by incubating in TBS (Tris buffered saline) containing 5% milk for 30 minutes at 37° C. The membranes were then washed in TBST (TBS with 0.05% Tween 20) and incubated overnight with antiphosphotyrosine monoclonal antibody (1.5 μg/mL) in TBST. The primary antibody was removed, and the membranes were washed four times in TBST. To visualize the antibody reaction, the membranes were incubated for 3 hours at 37° C. with alkaline phosphatase-conjugated antimouse IgG diluted 1:1000 in TBST, washed 3 times in TBST, and developed for 15 to 30 minutes. Determination of molecular weights of immuno-stained proteins was performed by adding molecular weight standards (Bio Rad) to reference lanes and staining the membrane filters with amido black.
(§2) The indicated densitometric measurements were made on a BioImage AK Kodak Visage 110.
An estimate of the limit of detection of dioxinlike activity can be made using the 0.25 μg/kg dose as the minimally effective dose. At this level of administration of TCDD, the 37 kDalton band becomes easily visible. Assuming a 20 g mouse, the diethyl ether extract would have to contain 5 ng of dioxin equivalents to initiate a tryosylphosphorylation of the 37 kDalton protein. […]

[2] = test system: protein tyrosylphosphorylation in X3 human lymphoblastoma cells; test: Immunoblot / densitometry of X3 cell lysate phosphotyrosyl proteins; type: cell-based
Experimental: as §2
The X3 human lymphoblastoma cells (Genetest, Wolburn, Mass.) were grown in 75 cm^2 T-flasks in RPMI 1640 medium (Gibco) containing 9% horse serum. Any cell or cell line expressing cytochrome P-450IA1 may be used. The cells were cultured at 37° C. in a 5% CO2 (balance air) environment. Cells were subcultured by centrifuging (1000 rpm, 3 minutes) and resuspended in fresh media to a volume of 50 mL (at a cell density of 1.0×10^6 cells/mL). The TCDD-corn oil solution was homogenized with serum to a final concentration of 0.10 μg/mL. The TCDD-serum was added at concentrations of 0, 0.02, 0.05, 0.1, 0.5 and 1.0 nM per flask and incubated for 16 hours. After the appropriate incubation time, the cells were harvested by centrifugation and washed three times (PBS, […]). A final cell count was then determined.
as §1, with “of cell lysate” for “of S-9”, “the cell lysate” for “the S-9”, “Milliblot SDE” for “Milliblot SDS”, “25-30 min” for “25-30 minutes”, “with antiphoshphotyrosine” for “with antiphosphotyrosine”
An estimate of the limit of detection of dioxinlike activity can be made using the 0.2 nM dose as the minimally effective dose. At this level of administration the 57 kDalton band becomes easily visible. Assuming a 100 μL incubation well (e.g., in a 96 well microtiter plate), the diethyl ether extract would have to contain approximately 37.5 pg of dioxin equivalents to initiate a tyrosylphosphorylation of the 57 kDalton protein. This amount would be present in the extract of a 2 g sample containing 20 parts per trillion of dioxin equivalents. If the 33 kDalton protein were used to quantitate the dioxinlike activity, the limit of detection based upon a response at the EC50 of 0.04 nM, would be approximately 4 ppt. Since it is generally believed that an action concentration of dioxin is 50 ppt and current instrumental methods detect approximately 3.5 ppt, this level of analysis is sufficient for initial regulatory or health considerations.

Ah receptor = settings: cited from earlier work
human receptor = settings: cited from earlier work
[3] = test system: cytochrome P-450IA1 aryl hydrocarbon hydroxylase; settings: 3 days post-injection (Poland et al. 1974); cited from earlier work
DBA/2 strain = settings: DBA/2 mouse; cited from earlier work

In the case of `Clc1cc2c(cc1Cl)Oc1cc(Cl)c(Cl)cc1O2` [TCDD, 2,3,7,8-tetrachlorodibenzo-p-dioxin], the minimal effective dose ([1]; Mus musculus, ip, 24 h, in vivo limit-of-detection estimate, read-out: minimally effective dose (37 kDalton band easily visible)) is reported as 0.25 µg/kg, the ED50 ([1]; Mus musculus, ip, densitometry of immunoblot, i.p., 24 hours after dosing, read-out: ED50, 44 kDalton protein tyrosylphosphorylation) is reported as 0.5 µg/kg and the “dose of maximal 44 kDalton protein tyrosylphosphorylation” value ([1]; densitometry of immunoblot, i.p., 24 hours after dosing) is reported as 1 μg TCDD/kg. For the same compound, the “tyrosylphosphorylation of the 37 kDalton protein” value ([1]; immunoblot, i.p., 24 hours) was “resulted in the tyrosylphosphorylation of the 37 kDalton protein; also recorded: highly phosphorylated at tyrosine residues”, the minimal effective concentration ([2]; Homo sapiens, 16 h, limit-of-detection estimate, read-out: minimally effective dose (57 kDalton band easily visible)) was 0.0002 µM and the EC50 ([2]; Homo sapiens, densitometry of immunoblot, 16 hours, read-out: EC50, 33 kDalton protein tyrosylphosphorylation) was 0.04 nM. For the same compound, the “concentration of maximal 33 kDalton protein tyrosylphosphorylation” value ([2]; densitometry of immunoblot, 16 hours) was 0.1 nM, the “pTP at 57 kDaltons” value ([2]; immunoblot) was “highly phosphorylated at tyrosine residues; also recorded: appeared in all X3 cells treated with TCDD” and the “pTP at 110 kDaltons” value ([2]; immunoblot) was “decreased with increasing TCDD concentration; also recorded: decreased in intensity”. For the same compound, the “equilibrium dissociation constant (Kd), earlier Scatchard analysis” value (Ah receptor; almost all Ah receptors studied) was “nM range”, the “Kd, newer experimental approaches” value (Ah receptor) was “pM range” and the “binding affinity to Ah receptor” value (Ah receptor) was “binds most strongly”. For the same compound, the “binding to human receptor” value (human receptor) was “Weaker binding”, the “published ED50, induction of aryl hydrocarbon hydroxylase specific activity” value [3] was “approximately 3 μg/kg” and the “susceptibility to TCDD toxicity” value (DBA/2 strain) was “relatively resistant”.
